Data from paper PMC3541007 (ChemMedChem, 2009).
Several values for one entry are separate records, joined by “and”; a condition that tells them apart may be missing. Equal entries are not always repeated. Where two headings read alike, the source gives them in different places.

Assays:
[1] = system: M. tuberculosis H37Rv inhA (S94A); type: cell-based, Mycobacterium tuberculosis
[2] = system: M. tuberculosis clinical isolate 12081; type: cell-based; conditions: for MIC clinical isolate 12081: multi-drug resistant isolate, four weeks
[3] = system: M. tuberculosis clinical isolate 5071; type: cell-based; conditions: multi-drug resistant isolate, four weeks
[4] = system: M. tuberculosis H37Rv ΔkatG; type: cell-based, Mycobacterium tuberculosis

| Molecule | MIC H37Rv inhA (S94A) [1] | MIC clinical isolate 12081 [2] [µg/mL] | MIC clinical isolate 12081 ([2]; value in parentheses) [µM] | MIC clinical isolate 5071 [3] [µg/mL] | MIC clinical isolate 5071 ([3]; value in parentheses) [µM] | fold loss in potency versus InhA(S94A) strain compared to wild-type [1] [fold] | times less active against the ΔkatG mutant [4] | fold resistance of strain 12081 ([2]; MIC ratio vs wild-type strain) [fold] |
| --- | --- | --- | --- | --- | --- | --- | --- | --- |
| 5-n-butyltriclosan [Compound 10] | 37 (120) µg/ml and 37 (120) µM | 37 | 120 | 4.7 | 15 |  |  |  |
| NNC(=O)c1ccncc1 [INH, isoniazid] | 0.50 (3.6) µg/ml and 0.50 (3.6) µM |  |  |  |  | 8 | more than 3000 times | 17 |
